Data published in PubChem BioAssay AID248 (DTP/NCI, 2004).
“And” between values parts separate entries of the source, which are not always exact repeats. Identical values can stand only once. Toxic doses and inconclusive results are not listed. Cut-off read from the data, not from the text of the source: active = T/C of 150% or more; inactive = T/C below 125%.

System: L1210 leukemia ip in BDF1 mice, survival T/C
Test: NCI In Vivo Anticancer Drug Screen. Data for tumor model L1210 Leukemia (intraperitoneal) in B6D2F1 (BDF1) mice
Settings: endpoint: mean survival time, higher = longer survival
Summary of the method: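 Each compound was tested against a transplantable tumor grown in mice. The endpoint was survival, with treated animals benchmarked against vehicle controls as a simple ratio.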

[1] = dose: 100.0 mg/kg/injection, schedule: Q01DX009 (ip), vehicle: Klucel (hydroxypropylcellulose) (HPC)
[2] = dose: 100.0 mg/kg/injection, schedule: Q04DX003 (ip), vehicle: Klucel (hydroxypropylcellulose) (HPC)
[3] = dose: 200.0 mg/kg/injection, schedule: Q01DX009 (ip), vehicle: Klucel (hydroxypropylcellulose) (HPC)
[4] = dose: 200.0 mg/kg/injection, schedule: Q04DX003 (ip), vehicle: Klucel (hydroxypropylcellulose) (HPC)
[5] = dose: 400.0 mg/kg/injection, schedule: Q01DX009 (ip), vehicle: Klucel (hydroxypropylcellulose) (HPC)
[6] = dose: 400.0 mg/kg/injection, schedule: Q04DX003 (ip), vehicle: Klucel (hydroxypropylcellulose) (HPC)
[7] = dose: 100.0 mg/kg/injection, schedule: Q04DX002 (ip), vehicle: saline with Tween-80
[8] = dose: 200.0 mg/kg/injection, schedule: Q04DX002 (ip), vehicle: saline with Tween-80
[9] = dose: 400.0 mg/kg/injection, schedule: Q04DX002 (ip), vehicle: saline with Tween-80
[10] = dose: 12.5 mg/kg/injection, schedule: Q01DX009 (ip), vehicle: Klucel (hydroxypropylcellulose) (HPC)
[11] = dose: 25.0 mg/kg/injection, schedule: Q01DX009 (ip), vehicle: Klucel (hydroxypropylcellulose) (HPC)
[12] = dose: 100.0 mg/kg/injection, schedule: Q04DX003 (ip), vehicle: saline
[13] = dose: 200.0 mg/kg/injection, schedule: Q04DX003 (ip), vehicle: saline
[14] = dose: 400.0 mg/kg/injection, schedule: Q04DX003 (ip), vehicle: saline
[15] = dose: 6.25 mg/kg/injection, schedule: Q01DX009 (ip), vehicle: Klucel (hydroxypropylcellulose) (HPC)
[16] = dose: 50.0 mg/kg/injection, schedule: Q01DX009 (ip), vehicle: Klucel (hydroxypropylcellulose) (HPC)

Measured: T/C

C(=NC1CCCCC1)=NC1CCCCC1
inactive: dose: 2.5 mg/kg/injection, schedule: Q04DX003 (ip), vehicle: Klucel (hydroxypropylcellulose) (HPC) 105 % of control | dose: 5.0 mg/kg/injection, schedule: Q04DX003 (ip), vehicle: Klucel (hydroxypropylcellulose) (HPC) 105 % of control | dose: 10.0 mg/kg/injection, schedule: Q04DX003 (ip), vehicle: Klucel (hydroxypropylcellulose) (HPC) 106 % of control

Cc1c(C)c([N+](=O)[O-])c(C)c(C)c1[N+](=O)[O-]
inactive: [1] 91 % of control | [2] 96 % of control | [3] 98 % of control | [4] 100 % of control | [5] 93 % of control | [6] 101 % of control

O=c1c(N=Nc2ccc(Br)cc2)c(O)n(-c2ccccc2)c(=S)n1-c1ccccc1
inactive: dose: 100.0 mg/kg/injection, schedule: Q01DX001 (ip), vehicle: Klucel (hydroxypropylcellulose) (HPC) 105 % of control | dose: 200.0 mg/kg/injection, schedule: Q01DX001 (ip), vehicle: Klucel (hydroxypropylcellulose) (HPC) 102 % of control | dose: 400.0 mg/kg/injection, schedule: Q01DX001 (ip), vehicle: Klucel (hydroxypropylcellulose) (HPC) 102 % of control

O=[N+]([O-])c1ccc(NCc2ccccc2)nc1
inactive: [7] 91 % of control | dose: 111.0 mg/kg/injection, schedule: Q01DX Z (ip), vehicle: carboxymethylcellulose (CMC) 111 % of control | dose: 166.7 mg/kg/injection, schedule: Q01DX Z (ip), vehicle: carboxymethylcellulose (CMC) 98 % of control | [8] 97 % of control | dose: 250.0 mg/kg/injection, schedule: Q01DX Z (ip), vehicle: carboxymethylcellulose (CMC) 101 % of control | dose: 375.0 mg/kg/injection, schedule: Q01DX Z (ip), vehicle: carboxymethylcellulose (CMC) 100 % of control | [9] 103 % of control

CCCCCS(=O)(=O)N(CC)CC
inactive: [7] 96 % of control | [8] 96 % of control | [9] 89 % of control

O=P(c1ccc(F)cc1)(c1ccc(F)cc1)c1ccc(F)cc1
inactive: [10] 101 % of control | [11] 103 % of control

CN1CCN(CCSC(=O)N2c3ccccc3Sc3ccc(Cl)cc32)CC1
inactive: dose: 75.0 mg/kg/injection, schedule: Q01DX001 (ip), vehicle: saline 94 % of control

CCCCCCCCCC1=NN(c2cccc(S(=O)(=O)N(C)c3ccccc3)c2)C(=O)C1
inactive: [12] 94 % of control | [13] 94 % of control | [14] 91 % of control

O=C(NC(CO)C(=O)OCc1ccccc1)OCc1ccccc1 (stereo not drawn)
inactive: [1] 104 % of control | [2] 104 % of control | dose: 100.0 mg/kg/injection, schedule: Q04DX003 (ip), vehicle: saline with Tween-80 98 % of control | [3] 102 % of control | [4] 101 % of control | dose: 200.0 mg/kg/injection, schedule: Q04DX003 (ip), vehicle: saline with Tween-80 95 % of control | [5] 102 % of control | [6] 90 % of control | dose: 400.0 mg/kg/injection, schedule: Q04DX003 (ip), vehicle: saline with Tween-80 90 % of control

NC(=O)c1ccnn1C1OC(CO)C(O)C1O (stereo not drawn)
inactive: dose: 50.0 mg/kg/injection, schedule: Q01DX005 (ip), vehicle: water 102 % of control | dose: 100.0 mg/kg/injection, schedule: Q01DX005 (ip), vehicle: water 102 % of control | dose: 200.0 mg/kg/injection, schedule: Q01DX005 (ip), vehicle: water 105 % of control

Cc1cc(NC(=O)Oc2ccccc2)ccc1S(=O)(=O)F
inactive: dose: 75.0 mg/kg/injection, schedule: Q01DX001 (ip), vehicle: steriod suspending solution 102 % of control | dose: 150.0 mg/kg/injection, schedule: Q01DX001 (ip), vehicle: steriod suspending solution 96 % of control | dose: 300.0 mg/kg/injection, schedule: Q01DX001 (ip), vehicle: steriod suspending solution 98 % of control

CCOP(=S)(OCC)S/C(C(=O)NC)=C(/C)O
inactive: [15] 94 % of control | [10] 97 % of control | dose: 100.0 mg/kg/injection, schedule: Q04DX003 (sc), vehicle: olive oil, sesame oil, peanut oil 103 % of control | dose: 200.0 mg/kg/injection, schedule: Q04DX003 (sc), vehicle: olive oil, sesame oil, peanut oil 106 % of control

CN(C)c1ccc(C=Nc2cc([N+](=O)[O-])ccc2O)cc1
inactive: dose: 100.0 mg/kg/injection, schedule: Q01DX001 (ip), vehicle: saline 96 % of control | dose: 200.0 mg/kg/injection, schedule: Q01DX001 (ip), vehicle: saline 92 % of control | dose: 400.0 mg/kg/injection, schedule: Q01DX001 (ip), vehicle: saline 91 % of control

CCc1ccc(NC(=O)c2c(Br)c(Br)c(Br)c(Br)c2C(=O)O)cc1
inactive: [11] 96 % of control | [16] 104 % of control | [1] 101 % of control and 107 % of control

O=C(CCCN1CC=C(n2c(=O)[nH]c3ccccc32)CC1)c1ccc(F)cc1
inactive: [15] 100 % of control | dose: 6.25 mg/kg/injection, schedule: Q04DX003 (ip), vehicle: Klucel (hydroxypropylcellulose) (HPC) 103 % of control | [10] 104 % of control | dose: 12.5 mg/kg/injection, schedule: Q04DX003 (ip), vehicle: Klucel (hydroxypropylcellulose) (HPC) 103 % of control | [11] 98 % of control | dose: 25.0 mg/kg/injection, schedule: Q04DX003 (ip), vehicle: Klucel (hydroxypropylcellulose) (HPC) 103 % of control | [16] 102 % of control | dose: 50.0 mg/kg/injection, schedule: Q04DX003 (ip), vehicle: Klucel (hydroxypropylcellulose) (HPC) 106 % of control | [1] 94 % of control | [2] 101 % of control and 111 % of control

CC(O)(C(=O)O)C(O)C(O)CO (stereo not drawn)
inactive: [7] 100 % of control | [8] 88 % of control | [9] 100 % of control

CC(=O)NCCC(=O)O
inactive: [12] 95 % of control | [13] 101 % of control | [14] 95 % of control

[N-]=[N+]=C1N=CN=C1c1ncnn1Cc1ccccc1
inactive: dose: 5.0 mg/kg/injection, schedule: Q01DX001 (ip), vehicle: other 105 % of control | dose: 10.0 mg/kg/injection, schedule: Q01DX001 (ip), vehicle: other 97 % of control | dose: 20.0 mg/kg/injection, schedule: Q01DX001 (ip), vehicle: other 94 % of control | dose: 40.0 mg/kg/injection, schedule: Q01DX001 (ip), vehicle: other 94 % of control | dose: 80.0 mg/kg/injection, schedule: Q01DX001 (ip), vehicle: other 101 % of control

CC1CCCN(C)C1 (stereo not drawn)
inactive: [1] 100 % of control | [2] 100 % of control | [4] 100 % of control | [6] 93 % of control
